For data set [1] the following is noted: cited from earlier work.
A short description of data set [2]: Release testing, USP paddle apparatus, purified water, UV at 260 nm. It is filed as physicochemical. The settings on record: raw material, 0.2 g in 100 ml water; FIG. 1. The procedure: Dissolution experiments were performed in a Sotax AT7 Dissolution apparatus, USP paddle.
All assays were performed in a Shimadzu UV-1700 spectrophotometer.
Release testing was performed in a USP paddle apparatus using 500 ml purified water as release medium and operated at 100 rpm. The results were quantified by a Shimadzu spectrophotometer at 260 nm after dilution 1:50.
To assess whether the ethylcellulose film coating was able to delay the release of nicotinamide, the release from the coated 95% granules (RD1302-2-C1) was tested and compared to the release from the raw material. Nicotinamide from the raw material (0.2 g in 100 ml water) was dissolved very quickly and within 5 minutes. […] Release of the remaining nicotinamide started later than 30 minutes, and after 3 hours 85% had been released. This means that release of nicotinamide can be released over 3 hours by applying an ethylcellulose film.

In brackets after ≈: the same amount, converted by molar mass.

As for `NC(=O)c1cccnc1` [Nicotinamide], the “Solubility in 96% ethanol” value in data set [1] (96% ethanol) is 660 mg/mL (≈ 5400 mM). For the same compound, the Solubility in water in data set [1] (water, 20° C.) was 690 mg/mL (≈ 5650 mM). Besides, the Time until dissolved in data set [2] was ≤ 5 min.

The record behind these values is patent US10456389B2, “Extended release nicotinamide formulation” (Ferring B.V., priority 2013, dated 2019).
